Test results taken from patent publication US6602900B2, “Cyclopentane heptan(ENE)oic acid, 2-heteroarylalkenyl derivatives as therapeutic agents” (Allergan, Inc., priority 1992, dated 2003).

Key:
[1] = system: Dog intraocular pressure; test: Dog intraocular pressure by applanation pneumatonometry; type: in vivo; conditions: dogs
Description: The compounds were prepared at the said concentrations in a vehicle comprising 0.1% polysorbate 80 and 10 mM TRIS base. Dogs were treated by administering 25 μl to the ocular surface, the contralateral eye received vehicle as a control. Intraocular pressure was measured by applanation pneumatonometry. Dog intraocular pressure was measured immediately before drug administration and at 6 hours thereafter.

[2] = system: ocular surface; conditions: humans; cited from earlier work
[3] = system: intraocular pressure; conditions: ocular; cited from earlier work
[4] = target: T1, EP1 receptor (Cavia porcellus, UniProt A0A286XHJ6); test: EP1-activity: contraction of the longitudinal smooth muscle of the isolated guinea pig ileum; type: cell-based
T1 sequence (A0A286XHJ6 1-405): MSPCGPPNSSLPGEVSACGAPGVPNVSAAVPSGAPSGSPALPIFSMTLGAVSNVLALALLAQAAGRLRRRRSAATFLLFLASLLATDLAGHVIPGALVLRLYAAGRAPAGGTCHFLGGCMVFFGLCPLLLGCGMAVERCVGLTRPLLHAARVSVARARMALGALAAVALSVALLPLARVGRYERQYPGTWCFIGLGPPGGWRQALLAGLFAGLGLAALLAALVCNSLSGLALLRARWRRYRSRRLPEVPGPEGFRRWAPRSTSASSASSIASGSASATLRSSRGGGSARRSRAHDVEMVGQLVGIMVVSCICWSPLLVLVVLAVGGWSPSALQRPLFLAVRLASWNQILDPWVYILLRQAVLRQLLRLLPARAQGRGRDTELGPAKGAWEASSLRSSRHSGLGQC
Description: (§1) Activity at different prostanoid receptors was measured in vitro in isolated smooth muscle preparations. FP-activity was measured as contraction of the isolated feline iris sphincter. EP1-activity was measured as contraction of the longitudinal smooth muscle of the isolated guinea pig ileum. EP3-activity was measured as inhibition of the twitch response induced by electrical field stimulation in the isolated guinea pig was deferens and as contraction of the longitudinal smooth muscle of the isolated chick ileum. Activity was also measured as relaxation of smooth muscle of isolated rabbit jugular vein a preparation which appears to contain a unique PGF2α-sensitive receptor provisionally termed FPVASC. TP-vasoconstrictor activity was measured as contraction of rings of the isolated rat thoracic aorta. Effects on platelets from healthy human donors were measured by incubating platelet-rich plasma with the compounds described herein. Inhibition of aggregation was determined by the ability of the compounds described herein to inhibit platelet aggregation in platelet-rich plasma induced by 20 μM ADP.

[5] = system: Dog eye (hyperemia); test: Ocular surface hyperemia in dogs after topical dosing; type: in vivo; set-up: scale not given here
[6] = target: T2, TP receptor (Rattus norvegicus, UniProt P34978); test: TP-vasoconstrictor activity: contraction of rings of the isolated rat thoracic aorta; type: cell-based; conditions: isolated rat thoracic aorta contraction; read-out: EC50 (nM) TP
T2 construct: rings of the isolated rat thoracic aorta; from tissue; host or cells: isolated rat thoracic aorta rings
T2 sequence (P34978 1-341): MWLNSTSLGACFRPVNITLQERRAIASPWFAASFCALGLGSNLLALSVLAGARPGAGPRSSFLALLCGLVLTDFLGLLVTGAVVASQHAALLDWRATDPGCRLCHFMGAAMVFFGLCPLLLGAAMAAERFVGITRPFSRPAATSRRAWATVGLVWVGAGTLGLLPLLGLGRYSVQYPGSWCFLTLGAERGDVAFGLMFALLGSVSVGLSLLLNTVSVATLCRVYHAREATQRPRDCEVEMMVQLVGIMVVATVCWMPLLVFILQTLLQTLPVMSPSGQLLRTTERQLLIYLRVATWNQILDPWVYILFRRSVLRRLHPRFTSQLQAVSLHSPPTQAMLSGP
Description: as §1

[7] = system: PGF2α-sensitive receptor provisionally termed FPVASC; test: Relaxation of smooth muscle of isolated rabbit jugular vein; type: cell-based; conditions: isolated rabbit jugular vein relaxation; read-out: EC50 (nM) FPVASC
Description: as §1

[8] = system: Dog eye (miosis); test: Miosis in dogs after topical dosing; type: in vivo
[9] = target: T3, EP3 receptor (UniProt A0A286XLZ9); test: EP3-activity: inhibition of the twitch response induced by electrical field stimulation in the isolated guinea pig vas deferens; type: cell-based; conditions: pa = printed beside some values, read-out: EC50 (nM) EP3, first value of the cell
T3 sequence (A0A286XLZ9 1-363): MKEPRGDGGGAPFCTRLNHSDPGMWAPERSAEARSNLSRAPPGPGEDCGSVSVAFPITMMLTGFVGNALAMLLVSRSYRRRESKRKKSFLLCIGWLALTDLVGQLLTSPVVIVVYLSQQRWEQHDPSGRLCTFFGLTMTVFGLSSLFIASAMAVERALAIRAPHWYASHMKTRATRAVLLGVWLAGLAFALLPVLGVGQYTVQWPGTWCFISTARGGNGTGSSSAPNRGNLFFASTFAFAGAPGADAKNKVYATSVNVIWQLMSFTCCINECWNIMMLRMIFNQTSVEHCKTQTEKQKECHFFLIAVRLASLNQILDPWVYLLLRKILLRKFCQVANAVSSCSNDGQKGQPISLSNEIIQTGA
Description: as §1

Row | Molecule | ocular hypotensive effect (in words) [1] | EC50 [4] [nM] | Hyp (hyperemia score) ([5]; 0.1%) | EC50 [6] [nM] | EC50 [7] [nM] | Miosis ([8]; 0.1%) | EC50 [9] [nM] | also measured
1 | O=C(O)CCC/C=C\C[C@@H]1[C@@H](/C=C/[C@@H](O)CCc2cc(Cl)sc2Cl)[C@H](O)C[C@@H]1O [Compound 4g, 7-[3α,5α-Dihydroxy-2-(3α-hydroxy-5-(3-(2,5-dichloro)thienyl)-1E-pentenyl)cyclopentyl]-5Z-heptenoic acid] | pronounced ocular hypotensive effect | – | – | – | – | – | – | –
2 | NC(=O)CCC/C=C\CC1C(O)CC(O)C1/C=C/C(O)CCc1sccc1I (stereo not drawn) [Compound 8t] | pronounced ocular hypotensive effect | – | – | – | – | – | – | –
3 | prostaglandin F2α [PGF2α] | – | – | – | – | – | – | – | side effects of topical ocular use (in words) [2]: ocular surface (conjunctival) hyperemia and foreign-body sensation
4 | Cc1c(Br)csc1CCC(O)/C=C/C1C(O)CC(O)C1C/C=C\CCCC(N)=O (stereo not drawn) [Compound 8u] | pronounced ocular hypotensive effect | – | – | – | – | – | – | –
5 | CCCCC[C@H](O)/C=C/[C@@H]1[C@@H](C/C=C\CCCC(=O)OC(C)C)[C@@H](O)C[C@H]1O [isopropyl ester of PGF2α] | – | – | – | – | – | – | – | hypotensive potency versus parent compound (in words) [3]: significantly greater hypotensive potency than the parent compound; side effects of topical ocular use (in words) [2]: ocular surface (conjunctival) hyperemia and foreign-body sensation
6 | O=C(O)CCC/C=C\C[C@@H]1[C@@H](/C=C/[C@@H](O)CCc2ccsc2Cl)[C@H](O)C[C@@H]1O | – | > 10000 | 1.13 | 2450 | 47 | pinpoint | 1000 | –
7 | O=C(O)CCC/C=C\C[C@@H]1[C@@H](/C=C/[C@@H](O)CCc2ccsc2)[C@H](O)C[C@@H]1O [Compound 4p, 7-[3α,5α-Dihydroxy-2-(3α-hydroxy-5-(3-thienyl)-1E-pentenyl)cyclopentyl]-5Z-heptenoic acid] | excellent ability to lower intraocular pressure | – | – | – | – | – | – | –
8 | O=C(O)CCC/C=C\C[C@@H]1[C@@H](/C=C/[C@H](O)CCc2cccs2)[C@H](O)C[C@@H]1O | – | > 10000 | 0.79 | > 10000 | 31 | pinpt | > 10000 | –
9 | O=C(O)CCC/C=C\C[C@@H]1[C@@H](/C=C/[C@@H](O)CCc2ccco2)[C@H](O)C[C@@H]1O | – | > 10000 | 0.67 | ~10000 | > 7690 | pinpoint | 44 | Hyp (hyperemia score) ([5]; 0.01%): 0.54; Miosis ([8]; 0.01%): mild
10 | Cc1cc(CC[C@H](O)/C=C/[C@@H]2[C@@H](C/C=C\CCCC(=O)O)[C@@H](O)C[C@H]2O)cs1 | – | > 10000 | 1.38 | ~10000 | > 7140 | pinpt | 305 | Hyp (hyperemia score) ([5]; 0.01%): 0.42; Miosis ([8]; 0.01%): pinpt
11 | O=C(O)CCC/C=C\C[C@@H]1[C@@H](/C=C/[C@@H](O)CCc2cc(Cl)sc2Cl)[C@H](O)C[C@@H]1O [drawing 28] | – | > 10000 | 0.5 | 2300 | 7.7 | pinpt | > 10000 | –
12 | O=C(O)CCC/C=C\C[C@@H]1[C@@H](/C=C/[C@@H](O)CCc2ccc(Br)s2)[C@H](O)C[C@@H]1O | – | > 10000 | 1.0 | 5080 | 8.5 | pinpoint | 36 | –
13 | NC(=O)CCC/C=C\CC1C(O)CC(O)C1/C=C/C(O)CCc1scc(Br)c1Br (stereo not drawn) [Compound 8v] | pronounced ocular hypotensive effect | – | – | – | – | – | – | –
